Where a name gives a salt, the structure may show the parent alone.
Experiments:
Format in all cases: biochemical
[1] = target: T1, untagged HECT of NEDD4L (E3 ligase) (Homo sapiens, UniProt Q96PU5); assay: In vitro ubiquitination assay TR-FRET based, NEDD4L; settings: read-out: percentage of inhibition (NEDD4L)
T1 construct: using untagged HECT of NEDD4L (E3 ligase) instead of untagged HECT of NEDD4 wild-type (WT) (E3 ligase); made in house; host or cells: bacteria (printed for the NEDD4L HECT of the western-blot assay; not repeated here)
T1 sequence (Q96PU5 594-975 limits assumed): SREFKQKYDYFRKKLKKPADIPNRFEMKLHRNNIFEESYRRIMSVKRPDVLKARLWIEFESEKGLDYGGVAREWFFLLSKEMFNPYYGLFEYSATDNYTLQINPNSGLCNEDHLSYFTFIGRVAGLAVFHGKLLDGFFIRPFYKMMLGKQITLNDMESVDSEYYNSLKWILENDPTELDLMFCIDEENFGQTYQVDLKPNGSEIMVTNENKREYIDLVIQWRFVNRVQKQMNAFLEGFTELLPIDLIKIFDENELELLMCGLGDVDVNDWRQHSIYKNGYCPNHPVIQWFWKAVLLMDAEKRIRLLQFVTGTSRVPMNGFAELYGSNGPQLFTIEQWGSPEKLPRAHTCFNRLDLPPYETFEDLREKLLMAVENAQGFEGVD
Protocol: (§1) To determine the selectivity of identified NEDD4 inhibitors, it was quantitatively measured the self-ubiquitination process of the E3 HECT ligase belonging to NEDD4 family such as NEDD4L, HECW2 and ITCH in presence or not of some compounds such as 5, 9, 12, 29, 42, 45, 56, 58, 61, 77, 78, 85 and 94 employing TR-FRET based assays.
The assay was performed as described above in the paragraph titled “In vitro ubiquitination assay TR-FRET based” under the heading “2.1. NEDD4 UBIQUITINATION ASSAYS” using untagged HECT of NEDD4L (E3 ligase) instead of untagged HECT of NEDD4 wild-type (WT) (E3 ligase). In this case, final E1, E2 and E3 concentrations in the assay buffer (Tris-HCl pH 7.6 25 mM, NaCl 100 mM, MgCl2 5 mM and Tween 0.01%) were 30, 350 and 31.3 nanomolars, respectively. Untagged HECT NEDD4L (E3 ligase) enzyme was produced and purified as reported in E. Maspero et al. Methods Mol Biol. 1449:153-60 (2016) and in E. Maspero et al. EMBO Reports 12:342-349(2011).

[2] = target: T2, untagged HECT of ITCH (E3 ligase) (Homo sapiens, UniProt Q96J02); assay: In vitro ubiquitination assay TR-FRET based, ITCH; settings: read-out: percentage of inhibition (ITCH)
T2 construct: using untagged HECT of ITCH (E3 ligase) instead of untagged HECT of NEDD4 wild-type (WT) (E3 ligase); made in house
Protocol: as §1
The assay was performed as described above in the paragraph titled “In vitro ubiquitination assay TR-FRET based” under the heading “2.1. NEDD4 UBIQUITINATION ASSAYS” using untagged HECT of ITCH (E3 ligase) instead of untagged HECT of NEDD4 wild-type (WT) (E3 ligase). In this case, final E1, E2 and E3 concentrations in the assay buffer (Tris-HCl pH 7.6 25 mM, NaCl 100 mM, MgCl2 5 mM and Tween 0.01%) were 30, 350 and 60 nanomolars, respectively. Untagged HECT of ITCH (E3 ligase) enzyme was produced and purified as reported in E. Maspero et al. Methods Mol Biol. 1449:153-60 (2016) and in E. Maspero et al. EMBO Reports 12:342-349(2011).

[3] = target: T3, His-MPB tagged HECT of HECW2 (E3 ligase) (Homo sapiens, UniProt Q9P2P5); assay: In vitro ubiquitination assay TR-FRET based, HECW2; settings: read-out: percentage of inhibition (HECW2)
T3 construct: using His-MPB tagged HECT of HECW2 (E3 ligase) instead of untagged HECT of NEDD4 wild-type (WT) (E3 ligase); made in house
Protocol: as §1
The assay was performed as described above in the paragraph titled “In vitro ubiquitination assay TR-FRET based” under the heading “2.1. NEDD4 UBIQUITINATION ASSAYS” using His-MPB tagged HECT of HECW2 (E3 ligase) instead of untagged HECT of NEDD4 wild-type (WT) (E3 ligase). In this case, final E1, E2 and E3 concentrations in the assay buffer (Tris-HCl pH 7.6 25 mM, NaCl 100 mM, MgCl2 5 mM and Tween 0.01%) were 30, 350 and 62.5 nanomolars, respectively. His-MPB tagged HECT of HECW2 (E3 ligase) enzyme was produced and purified as reported in E. Maspero et al. Methods Mol Biol. 1449:153-60 (2016) and in E. Maspero et al. EMBO Reports 12:342-349(2011).

T2 sequence (Q96J02 569-903 limits assumed): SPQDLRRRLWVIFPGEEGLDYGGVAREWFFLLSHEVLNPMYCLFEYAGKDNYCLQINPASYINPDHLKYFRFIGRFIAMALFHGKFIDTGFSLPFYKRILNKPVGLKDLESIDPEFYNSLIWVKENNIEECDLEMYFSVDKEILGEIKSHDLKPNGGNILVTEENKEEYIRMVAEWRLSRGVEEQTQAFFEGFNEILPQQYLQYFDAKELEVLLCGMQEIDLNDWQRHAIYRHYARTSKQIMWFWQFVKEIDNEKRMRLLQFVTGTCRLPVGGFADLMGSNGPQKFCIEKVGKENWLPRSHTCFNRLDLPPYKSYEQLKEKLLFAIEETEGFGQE
T3 sequence (Q9P2P5 1237-1572 limits assumed): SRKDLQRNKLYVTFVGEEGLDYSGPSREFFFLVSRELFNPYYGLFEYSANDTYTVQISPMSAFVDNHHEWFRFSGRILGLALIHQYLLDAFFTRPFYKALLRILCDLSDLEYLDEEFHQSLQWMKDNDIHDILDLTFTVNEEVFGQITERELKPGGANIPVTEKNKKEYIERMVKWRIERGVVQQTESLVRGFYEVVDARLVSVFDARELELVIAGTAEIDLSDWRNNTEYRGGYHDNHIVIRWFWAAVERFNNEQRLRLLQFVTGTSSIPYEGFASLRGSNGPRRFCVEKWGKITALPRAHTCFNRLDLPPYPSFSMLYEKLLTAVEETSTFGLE

CCOC(=O)/C=C/CCNCCCN1c2ccccc2CCc2ccc(Cl)cc21 [Compound 5, Ethyl (E)-5-[3-(3-chloro-10,11-dihydro-5H-dibenzo[b,f]azepin-5-yl)propylamino]pent-2-enoate maleate]
inhibition at 11 µM [1]: < 15% | inhibition at 11 µM [2]: < 15% | inhibition at 11 µM [3]: < 15%

CON(C)C(=O)/C=C/CN(C)CCCCN1c2ccccc2CCc2ccc(Cl)cc21 [Compound 9, (E)-4-[4-(3-Chloro-10,11-dihydro-5H-dibenzo[b,f]azepin-5-yl)butyl-methyl-amino]-N-methoxy-N-methyl-but-2-enamide]
inhibition at 11 µM [1]: < 5% | inhibition at 11 µM [2]: < 20% | inhibition at 11 µM [3]: < 5%

CCOC(=O)/C=C/CNCCCCN1c2ccccc2CCc2ccc(Cl)cc21.O=C(O)/C=C\C(=O)O [Compound 12, Ethyl (E)-4-[4-(3-chloro-10,11-dihydro-5H-dibenzo[b,f]azepin-5-yl)butylamino]but-2-enoate maleate]
inhibition at 11 µM [1]: < 15% | inhibition at 11 µM [2]: < 5% | inhibition at 11 µM [3]: < 5%

CCOC(=O)/C=C/CNCCCCN1c2ccccc2C(=O)N(C)c2ccc(Cl)cc21 [Compound 29, Ethyl (E)-4-{[4-(7-chloro-10-methyl-11-oxo-10,11-dihydro-5H-dibenzo[b,e][1,4]diazepin-5-yl)butyl]amino}but-2-enoate maleate]
inhibition at 11 µM [1]: ≤ 20% | inhibition at 11 µM [2]: < 5% | inhibition at 11 µM [3]: < 15%

CCOC(=O)/C=C/CNCCCCN1c2cc(Cl)ccc2C(=O)N(C)c2ccccc21 [Compound 42, Ethyl (E)-4-{[4-(3-chloro-10-methyl-11-oxo-10,11-dihydro-5H-dibenzo[b,e][1,4]diazepin-5-yl)butyl]amino}but-2-enoate maleate]
inhibition at 11 µM [1]: < 15% | inhibition at 11 µM [2]: < 15% | inhibition at 11 µM [3]: < 15%

CCOC(=O)/C=C/CNCCCCN1c2ccccc2C(=O)N(Cc2ccccc2)c2ccc(Cl)cc21 [Compound 45, Ethyl (E)-4-{[4-(10-benzyl-7-chloro-11-oxo-10,11-dihydro-5H-dibenzo[b,e][1,4]diazepin-5-yl)butyl]amino}but-2-enoate maleate]
inhibition at 11 µM [1]: ≤ 20% | inhibition at 11 µM [2]: < 5% | inhibition at 11 µM [3]: < 20%

CCOC(=O)/C=C/CNCCCCN1c2cc(Cl)ccc2C(=O)N(Cc2ccccc2)c2ccccc21 [Compound 56, Ethyl (E)-4-((4-(10-benzyl-3-chloro-11-oxo-10,11-dihydro-5H-dibenzo[b,e][1,4]diazepin-5-yl)butyl)amino)but-2-enoate maleate]
inhibition at 11 µM [1]: ≤ 20% | inhibition at 11 µM [2]: < 15% | inhibition at 11 µM [3]: < 15%

COC(=O)/C=C/CN(C)CCCCN1c2cc(Cl)ccc2C(=O)N(Cc2ccccc2)c2ccccc21 [Compound 58, Methyl (E)-4-{[4-(10-benzyl-3-chloro-11-oxo-10,11-dihydro-5H-dibenzo[b,e][1,4]diazepin-5-yl)butyl](methyl)amino}but-2-enoate maleate]
inhibition at 11 µM [1]: < 5% | inhibition at 11 µM [2]: < 15% | inhibition at 11 µM [3]: < 5%

CN(C/C=C/C#N)CCCCN1c2cc(Cl)ccc2C(=O)N(Cc2ccccc2)c2ccccc21 [Compound 61, (E)-4-{[4-(10-benzyl-3-chloro-11-oxo-10,11-dihydro-5H-dibenzo[b,e][1,4]diazepin-5-yl)butyl](methyl)amino}but-2-enenitrile maleate]
inhibition at 11 µM [1]: < 5% | inhibition at 11 µM [2]: < 5% | inhibition at 11 µM [3]: < 5%

C#CCON(C)C(=O)/C=C/CN(C)CCCCN1c2ccccc2CCc2ccc(Cl)cc21 [Compound 77, (E)-4-[4-(3-Chloro-10,11-dihydro-5H-dibenzo[b,f]azepin-5-yl)butyl-methyl-amino]-N-methyl-N-prop-2-ynoxy-but-2-enamide maleate]
inhibition at 11 µM [1]: < 15% | inhibition at 11 µM [2]: < 5% | inhibition at 11 µM [3]: < 15%

CONC(=O)/C=C/CNCCCCN1c2ccccc2CCc2ccc(Cl)cc21 [Compound 78, (E)-4-[4-(3-Chloro-10,11-dihydro-5H-dibenzo[b,f]azepin-5-yl)butylamino]-N-methoxy-but-2-enamide maleate]
inhibition at 11 µM [1]: < 5% | inhibition at 11 µM [2]: < 20% | inhibition at 11 µM [3]: < 5%

CONC(=O)/C=C/CN(C)CCCCN1c2ccccc2CCc2ccc(Cl)cc21 [Compound 85, (E)-4-[4-(3-Chloro-10,11-dihydro-5H-dibenzo[b,f]azepin-5-yl)butyl-methyl-amino]-N-methoxy-but-2-enamide maleate]
inhibition at 11 µM [1]: < 5% | inhibition at 11 µM [2]: < 25% | inhibition at 11 µM [3]: < 5%

CN(C/C=C/C(=O)OCCOCCOCCOCCNC(=O)CCCC[C@@H]1SC[C@@H]2NC(=O)N[C@@H]21)CCCCN1c2ccccc2CCc2ccc(Cl)cc21 [Compound 94, 2-[2-(2-{2-[5-((3aS,4S,6aR)-2-Oxo-hexahydro-thieno[3,4-d]imidazol-4-yl)-pentanoylamino]-ethoxy}-ethoxy)-ethoxy]-ethyl (E)-4-{[4-(3-chloro-10,11-dihydro-dibenzo[b,f]azepin-5-yl)-butyl]-methyl-amino}but-2-enoate]
inhibition at 11 µM [1]: < 15% | inhibition at 11 µM [2]: < 15% | inhibition at 11 µM [3]: < 15%
